Measured values from patent US20040067998A1, “Antifungal and/or antiparasitic pharmaceutical composition and novel indole derivatives as active principle of such a composition” (priority 2003, published 2004).
“Also recorded” adds a separate entry of the source.

Experiments:
[1] = tested on: Candida albicans (4 strains); experiment: Antifungal activity in vitro on clinical strains of Candida: albicans (4 strains); type: cell-based
synthesis of ergosterol = experiment: Mechanism of action: quantification of ergosterol (HPLC and UV spectrophotometry); type: cell-based
Description: The principal mechanism of action of the triazole derivatives is the inhibition of the synthesis of ergosterol leading to instability of the cell membrane. […] These two techniques require a prior saponification of the sample followed by an extraction of the sterols present. The results obtained are expressed in μg of ergosterol per g of sample. The activity of the derivatives studied is expressed by their capacity to inhibit the synthesis of ergosterol compared to an untreated control sample.

[2] = tested on: Candida tropicalis (1 strain); experiment: Antifungal activity in vitro on clinical strains of Candida: tropicalis (1 strain); type: cell-based; settings: strain CT980002 (Candida tropicalis)
[3] = tested on: Candida krusei (4 strains); experiment: Antifungal activity in vitro on clinical strains of Candida: krusei (4 strains); type: cell-based
[4] = tested on: Candida albicans (strain n° CA980001); experiment: Antifungal activity on a clinical strain of Candida albicans (MTT colorimetric microplate test); type: cell-based; settings: strain CA980001; read-out: CMI or CI80 Candida albicans (CA980001)
[5] = tested on: Candida lusitaniae (1 strain); experiment: Antifungal activity in vitro on clinical strains of Candida: lusitaniae (1 strain); type: cell-based
[6] = tested on: promastigote stage of Leishmania mexicana; experiment: Antiparasitic activity on the promastigote form of Leishmania (MTT); type: cell-based; settings: promastigotes; read-out: CI50 Leishmania mexicana Promastigotes
[7] = tested on: clinical strains of Candida; experiment: Antifungal activity in vitro on several clinical strains of Candida (overall statement over all strains); type: cell-based; settings: summary of Table 41
[8] = tested on: Candida parapsilosis (2 strains); experiment: Antifungal activity in vitro on clinical strains of Candida: parapsilosis (2 strains); type: cell-based
[9] = tested on: Candida albicans (CA98001); experiment: Antifungal activity in vivo on a model of disseminated candidiasis; set-up: species or system female Swiss mice
[10] = Test N°3, 3 × 20 mg/kg/d for 5 d intraperitoneal

OC(Cn1cncn1)(Cn1ccc2ccccc21)c1ccc(Cl)cc1Cl (stereo not drawn) [compound 78]
activity against strains of Candida albicans (in words) ([1]; clinical strains): active; also recorded: very active | CI80 on clinical strains of Candida ([1]; strain CA980001 (Candida albicans)): <1 nM | CI80 on clinical strains of Candida ([1]; strain CA980002 (Candida albicans)): <10 nM | CI80 on clinical strains of Candida ([1]; strain CA980003 (Candida albicans)): <10 nM | CI80 on clinical strains of Candida ([1]; strain CA980005 (Candida albicans)): <10 nM | inhibition of the synthesis of ergosterol (in words) (synthesis of ergosterol; preliminary results): strong inhibition | reduction of the presence of ergosterol (HPLC determination) (synthesis of ergosterol; treatment for 24 hours at 10 μg, HPLC): 70% | ergosterol in the treated sample (UV spectrophotometry, in words) (synthesis of ergosterol; treatment for 24 hours at 10 μg, UV spectrophotometry): absence of ergosterol | CI80 on clinical strains of Candida [2]: <10 nM | activity against Candida krusei (in words) ([3]; clinical strains, b748: one strain): active; also recorded: very active | CI80 on clinical strains of Candida ([3]; strain CK980001 (Candida krusei)): <10 nM | CI80 on clinical strains of Candida ([3]; strain CK980002 (Candida krusei)): 7200 ± 100 nM | CI80 on clinical strains of Candida ([3]; strain CK980003 (Candida krusei)): 9200 ± 40 nM | CI80 on clinical strains of Candida ([3]; strain CK980004 (Candida krusei)): 300 ± 100 nM | MIC [4]: <1 nM | activity against Candida lusitaniae (in words) ([5]; clinical strain): very active | CI80 on clinical strains of Candida ([5]; strain CL980001 (Candida lusitaniae)): <10 nM | IC50 [6]: < 1000 nM | activity against different strains of Candida (in words) [7]: most active | activity against Candida parapsilosis (in words) ([8]; clinical strains): very active | CI80 on clinical strains of Candida ([8]; strain CP980001 (Candida parapsilosis)): <10 nM | CI80 on clinical strains of Candida ([8]; strain CP980002 (Candida parapsilosis)): 530 ± 120 nM | effect of treatment on the survival of the animals (in words) ([9]; Test N°2, 2 × 30 mg/kg/d for 5 d intraperitoneally, monitored 14 days (78: from D9 to D14)): significantly prolonged the survival | survival at D14 [9, 10]: 100% | survival at D18 [9, 10]: 75% | survival greater than that of the reference treatment (ketoconazole 20 mg/kg) ([9]; Test N°3, 3 × 20 mg/kg/d, experiment continued for 4 more days (D18)): 25% | survival at D10 ([9]; Test N°4, 3 × 20 mg/kg/d for 5 d, treatment intraperitoneal or per os): 100%
